Assay results from patent publication US6737383B1, “Herbicidal oxadiazolidines” (priority 1999, dated 2004).

Tests used:
[1] = tested on: velvetleaf; assay: Test B pre/postemergence velvetleaf; format: in vivo, Abutilon theophrasti
Procedure, shortened: (§1)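 Herbicidal effect was estimated by eye on a ten-point control scale after plants spent twelve to sixteen days in a greenhouse following soil or foliar treatment. Foliar sprays targeted plants at one to four leaves; all doses were formulated in a non-phytotoxic solvent with surfactant.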

[2] = tested on: pigweed; assay: Test B pre/postemergence pigweed; format: in vivo, Amaranthus retroflexus
Procedure, shortened: as §1

[3] = tested on: bedstraw; assay: Test B pre/postemergence bedstraw; format: in vivo, Galium aparine
Procedure, shortened: as §1

[4] = tested on: sugar beet; assay: Test B pre/postemergence sugar beet; format: in vivo, Beta vulgaris
Procedure, shortened: as §1

[5] = tested on: blackgrass; assay: Test B pre/postemergence blackgrass; format: in vivo, Alopecurus myosuroides
Procedure, shortened: as §1

[6] = tested on: cocklebur; assay: Test B pre/postemergence cocklebur; format: in vivo, Xanthium strumarium
Procedure, shortened: as §1

[7] = tested on: surinam grass; assay: Test B pre/postemergence surinam grass; format: in vivo, Brachiaria decumbens
Procedure, shortened: as §1

[8] = tested on: crabgrass; assay: Test B pre/postemergence crabgrass; format: in vivo, Digitaria sanguinalis
Procedure, shortened: as §1

[9] = tested on: giant foxtail; assay: Test B pre/postemergence giant foxtail; format: in vivo, Setaria faberii
Procedure, shortened: as §1

[10] = tested on: purple nutsedge; assay: Test B pre/postemergence purple nutsedge; format: in vivo, Cyperus rotundus
Procedure, shortened: as §1

[11] = tested on: morningglory; assay: Test B pre/postemergence morningglory; format: in vivo, Ipomoea hederacea
Procedure, shortened: as §1

[12] = tested on: wild oat; assay: Test B pre/postemergence wild oat; format: in vivo, Avena fatua
Procedure, shortened: as §1

[13] = tested on: wheat; assay: Test B pre/postemergence wheat; format: in vivo, Triticum aestivum
Procedure, shortened: as §1

[14] = tested on: soybean; assay: Test B pre/postemergence soybean; format: in vivo, Glycine max
Procedure, shortened: as §1

[15] = tested on: rape; assay: Test B pre/postemergence rape; format: in vivo, Brassica napus
Procedure, shortened: as §1

[16] = tested on: corn; assay: Test B pre/postemergence corn; format: in vivo, Zea mays
Procedure, shortened: as §1

[17] = Postemergence, Rate 62 g/ha, scale of 0 to 10, 0 is no effect, 10 is complete control
[18] = Postemergence, Rate 125 g/ha, scale 0 to 10, 0 is no effect, 10 is complete control
[19] = Postemergence, Rate 500 g/ha, scale 0 to 10, 0 is no effect, 10 is complete control
[20] = Preemergence, Rate 62 g/ha, scale 0 to 10 (0 no effect, 10 complete control)
[21] = Preemergence, Rate 125 g/ha, scale 0 to 10, 0 is no effect, 10 is complete control
[22] = Preemergence, Rate 500 g/ha, scale of 0 to 10 where 0 is no effect and 10 is complete control
[23] = Rate 250 g/ha, Postemergence, scale of 0 to 10 where 0 is no effect and 10 is complete control

COC(=O)CCCn1c(=O)on(C(=O)N(c2ccc(Cl)cc2)C(C)C)c1=O [Compound 543]
5: Sugarbeets plant response rating [4, 21]
1: Plant response rating, Cocklebur [6, 19] | Morningglory plant response rating [11, 17]
10: Cocklebur plant response rating [6, 22]
3: Plant response rating, Velvetleaf [1, 19] | Plant response rating, Sugarbeets [4, 19] | Plant response rating, B. signalgrass [7, 19] | Plant response rating, B. signalgrass [7, 23] | Plant response rating, Crabgrass [8, 23] | Plant response rating, Giant foxtail [9, 19] | Giant foxtail plant response rating [9, 20] | Giant foxtail plant response rating [9, 21] | Plant response rating, Wild oats [12, 19]
4: Sugarbeets plant response rating [4, 20] | B. signalgrass plant response rating [7, 21] | B. signalgrass plant response rating (0 to 10 scale, 0 is no effect, 10 is complete control) ([7]; Preemergence, Rate 250 g/ha) | Crabgrass plant response rating [8, 20] | Crabgrass plant response rating [8, 21] | Plant response rating, Morningglory [11, 23]
7: Redroot pigweed plant response rating [2, 20] | Redroot pigweed plant response rating [2, 21] | Plant response rating, Crabgrass [8, 19] | Plant response rating, Morningglory [11, 19]
6: Sugarbeets plant response rating (0 to 10 scale) ([4]; Preemergence, Rate 250 g/ha) | B. signalgrass plant response rating [7, 22] | Crabgrass plant response rating (0 to 10 scale) ([8]; Preemergence, Rate 250 g/ha)
2: Plant response rating, Bedstraw [3, 19] | Plant response rating, Sugarbeets [4, 23] | Plant response rating, Blackgrass [5, 19] | Blackgrass plant response rating [5, 22] | Morningglory plant response rating [11, 18] | Soybean plant response rating [14, 18] | Plant response rating, Soybean [14, 19] | Soybean plant response rating (0 to 10 scale) ([14]; Preemergence, Rate 250 g/ha) | Soybean plant response rating [14, 22] | Plant response rating, Soybean [14, 23]
8: Nutsedge plant response rating [10, 22]
0: Velvetleaf plant response rating [1, 17] | Velvetleaf plant response rating [1, 18] | Velvetleaf plant response rating [1, 20] | Velvetleaf plant response rating [1, 21] | Velvetleaf plant response rating (0 to 10 scale) ([1]; Preemergence, Rate 250 g/ha) | Velvetleaf plant response rating [1, 22] | Plant response rating, Velvetleaf [1, 23] | Redroot pigweed plant response rating [2, 17] | Redroot pigweed plant response rating [2, 18] | Plant response rating, Redroot pigweed [2, 19] | Plant response rating, Redroot pigweed [2, 23] | Bedstraw plant response rating [3, 17] | Bedstraw plant response rating [3, 18] | Bedstraw plant response rating [3, 21] | Bedstraw plant response rating (0 to 10 scale) ([3]; Preemergence, Rate 250 g/ha) | Bedstraw plant response rating [3, 22] | Sugarbeets plant response rating [4, 17] | Sugarbeets plant response rating [4, 18] | Blackgrass plant response rating [5, 17] | Blackgrass plant response rating [5, 18] | Blackgrass plant response rating [5, 20] | Blackgrass plant response rating [5, 21] | Blackgrass plant response rating (0 to 10 scale) ([5]; Preemergence, Rate 250 g/ha) | Plant response rating, Blackgrass [5, 23] | Cocklebur plant response rating [6, 17] | Cocklebur plant response rating [6, 18] | Cocklebur plant response rating [6, 21] | Cocklebur plant response rating (0 to 10 scale) ([6]; Preemergence, Rate 250 g/ha) | Plant response rating, Cocklebur [6, 23] | B. signalgrass plant response rating [7, 17] | B. signalgrass plant response rating [7, 18] | B. signalgrass plant response rating [7, 20] | Crabgrass plant response rating [8, 17] | Giant foxtail plant response rating [9, 17] | Giant foxtail plant response rating [9, 18] | Plant response rating, Giant foxtail [9, 23] | Nutsedge plant response rating [10, 17] | Nutsedge plant response rating [10, 18] | Plant response rating, Nutsedge [10, 19] | Nutsedge plant response rating [10, 20] | Nutsedge plant response rating [10, 21] | Nutsedge plant response rating (0 to 10 scale) ([10]; Preemergence, Rate 250 g/ha) | Plant response rating, Nutsedge [10, 23] | Morningglory plant response rating [11, 20] | Morningglory plant response rating [11, 21] | Morningglory plant response rating (0 to 10 scale) ([11]; Preemergence, Rate 250 g/ha) | Morningglory plant response rating [11, 22] | Wild oats plant response rating [12, 17] | Wild oats plant response rating [12, 18] | Wild oats plant response rating [12, 20] | Wild oats plant response rating [12, 21] | Wild oats plant response rating (0 to 10 scale) ([12]; Preemergence, Rate 250 g/ha) | Wild oats plant response rating [12, 22] | Plant response rating, Wild oats [12, 23] | Wheat plant response rating [13, 17] | Wheat plant response rating [13, 18] | Plant response rating, Wheat [13, 19] | Wheat plant response rating [13, 20] | Wheat plant response rating [13, 21] | Wheat plant response rating (0 to 10 scale) ([13]; Preemergence, Rate 250 g/ha) | Wheat plant response rating [13, 22] | Plant response rating, Wheat [13, 23] | Soybean plant response rating [14, 17] | Soybean plant response rating [14, 20] | Soybean plant response rating [14, 21] | Rape plant response rating [15, 17] | Rape plant response rating [15, 18] | Plant response rating, Rape [15, 19] | Rape plant response rating [15, 20] | Rape plant response rating [15, 21] | Rape plant response rating (0 to 10 scale) ([15]; Preemergence, Rate 250 g/ha) | Rape plant response rating [15, 22] | Plant response rating, Rape [15, 23] | Corn plant response rating [16, 17] | Corn plant response rating [16, 18] | Plant response rating, Corn [16, 19] | Corn plant response rating [16, 20] | Corn plant response rating [16, 21] | Corn plant response rating (0 to 10 scale) ([16]; Preemergence, Rate 250 g/ha) | Corn plant response rating [16, 22] | Plant response rating, Corn [16, 23]
9: Redroot pigweed plant response rating (0 to 10 scale) ([2]; Preemergence, Rate 250 g/ha) | Giant foxtail plant response rating (0 to 10 scale) ([9]; Preemergence, Rate 250 g/ha) | Giant foxtail plant response rating [9, 22]
